Assay results reported in patent US10071163B2, “Compositions and methods for selective delivery of oligonucleotide molecules to specific neuron types” (nLife Therapeutics, S.L., priority 2010, dated 2018).

Experiments:
[1] = test system: 5-HTT mRNA; experiment: In situ hybridization of 5-HTT mRNA after intranasal 5-HTT-NLF-siRNA; assay type: in vivo, mice (C57BL/6J)
Method: Twenty-four h after treatment, mice were killed by decapitation and the brains rapidly removed, frozen on dry ice and stored at −20° C. Tissue sections, 14 μm thick, were cut using a microtome-cryostat, thaw-mounted onto APTS (3-aminopropyltriethoxysilane) coated slides and kept at −20° C. until use.
To determine 5-HTT mRNA expression level, in situ hybridization assays were performed using an oligodeoxyribonucleotide probe specific for 5-HIT, complementary to bases 820-863 (Mouse, GenBank Accession Number: NM_010484). The 5-HTT oligonucleotide was individually labeled (2 pmol) at its 3′-end with [^33P]-dATP (>2500 Ci/mmol) using terminal deoxynucleotidyltransferase, purified by centrifugation using QIAquick Nucleotide Removal Kit. The protocols for single label in situ hybridization were based on previously described procedures. Briefly, frozen tissue sections, as described in example 2, were first brought to room temperature, fixed for 20 min at 4° C. in 4% paraformaldehyde in phosphate buffered saline (1×PBS: 8 mM Na2HPO4, 1.4 mM KH2PO4, 136 mM NaCl, 2.6 mM KCl), washed for 5 min in 3×PBS at room temperature, twice for 5 min each in 1×PBS and incubated for 2 min at 21° C. in a solution of pre-digested pronase at a final concentration of 24 U/ml in 50 mM Tris-HCl pH 7.5, 5 mM EDTA. The enzymatic activity was stopped by immersion for 30 s in 2 mg/ml glycine in 1×PBS. […]

[2] = test system: serotonin transporter (5-HTT); experiment: [3H]citalopram autoradiographic binding of serotonin transporter after intranasal 5-HTT-NLF-siRNA; assay type: in vivo, mice; details: vs vehicle or NLF-nonsense-siRNA, FIG. 15B-C
Text: 24-48. h after NLF-siRNA intranasal administration, mice were killed and their brains were removed and serial coronal sections of 14 μm thickness were obtained at the following AP coordinates, in mm, relative to bregma (Franklin and Paxinos, 1997): 2.2 (prefrontal cortex-PFC), 1.1 to 0.6 (caudate putamen—CPu, lateral and medial septal nucleus—Sep, ventral pallidum—VP), −1.5 to −1.8 (hippocampus—HPC, hypothalamus—Hip) and −4.24 to −4.96 (dorsal raphe nucleus—DR and median raphe nucleus—MnR). Briefly, frozen tissue sections were thawed and dried, preincubated in 50 mM Tris-HCl buffer (pH 7.4 at 25° C.) containing 120 mM NaCl and 5 mM KCl for 15 mm at room temperature. […] After incubation and washing, tissue sections were dipped in distilled ice-cold water and dried rapidly under a cold air stream. Tissues were exposed to tritium-sensitive film together with plastic ^3H-standards for 40 days at 4° C. Quantitative analysis of the autoradiograms was done with AIS computerized image analysis system. By using tissue-calibrated data from the co-exposed radioactive standards, OD values of autoradiograms were transformed to levels of radioactivity bound (nCi/mg tissue protein) to specific brain regions in tissue sections.

[3] = test system: 5-HT1AR; experiment: [3H]8-OH-DPAT autoradiographic binding of 5-HT1AR protein after i.c.v. infusion; assay type: in vivo, mice; details: 30 μg/2.5 μl/1 day into D3V
Method: To assay the density of 5-HT1AR protein we used [^3H]8-OH-DPAT for the autoradiographic visualization of 5-HT1A receptor sites. The experimental incubation conditions for [^3H]8-OH-DPAT have been previously described in the state of the art. Briefly, frozen tissue sections were thawed and dried, preincubated in 170 mM Tris-HCl pH 7.6, 4 mM CaCl2 and 0.01% ascorbic acid for 30 minutes at room temperature, and then incubated in the same buffer, including 1 nM [^3H]—OH-DPAT (234.0 Ci/mmol) and 10^−5 M pargyline for 60 minutes at room temperature. Non-specific binding was defined as that remaining in the presence of 10^−5 M 5-HT. After incubation and washing, tissue sections were dipped in distilled ice-cold water and dried rapidly under a cold air stream. Tissues were exposed to tritium-sensitive film together with plastic ^3H-standards for 60 days at 4° C.
A set of molecules (vehicle, ns naked siRNA, ns NLF-siRNA, naked siRNA and NLF-siRNA groups), as described in example 3, were infused at 30 μg/2.5 μl/1 day (2.3 nmoles) into dorsal 3rd ventricle (D3V) at the following stereotaxic coordinates (in mm: AP: −2.0, L: 0, DV: −2.1) using similar mice strain and infusion system of example 2. […]

[4] = test system: presynaptic 5-HT1A receptor; experiment: Microdialysis of 5-HT in medial prefrontal cortex after acute fluoxetine, i.c.v. siRNA; assay type: in vivo, mice; details: after systemic fluoxetine 20 mg/kg i.p.; siRNA 30 μg i.c.v.; FIG. 9
Text: The increase of extracellular 5-HT produced by reuptake blockade of serotonin transporter (SERT) activates 5-HT1A autoreceptors in the midbrain raphe nuclei, suppressing cell firing and terminal release, an effect that attenuates the extracellular 5-HT increase produced by reuptake blockade. Consequently, the activation of postsynaptic serotonin receptors responsible for the therapeutic effect is lower than expected. It is known that the blockade of these negative feedback mechanisms with 5-HT1A receptor antagonists (i.e pindolol) potentiates the 5-HT increase produced by SSRIs and, therefore, might serve to accelerate the clinical effects of SSRIs.

[5] = molecular target: T1, 5-HT1AR (Mus musculus, UniProt Q64264); experiment: Microdialysis of 5-HT in mPFC after 8-OH-DPAT, intranasal siRNA; details: intranasal 15 μg/5 μl in each nostril; 8-OH-DPAT 0.5 mg/kg i.p.; FIG. 12B
T1 sequence (Q64264 1-421): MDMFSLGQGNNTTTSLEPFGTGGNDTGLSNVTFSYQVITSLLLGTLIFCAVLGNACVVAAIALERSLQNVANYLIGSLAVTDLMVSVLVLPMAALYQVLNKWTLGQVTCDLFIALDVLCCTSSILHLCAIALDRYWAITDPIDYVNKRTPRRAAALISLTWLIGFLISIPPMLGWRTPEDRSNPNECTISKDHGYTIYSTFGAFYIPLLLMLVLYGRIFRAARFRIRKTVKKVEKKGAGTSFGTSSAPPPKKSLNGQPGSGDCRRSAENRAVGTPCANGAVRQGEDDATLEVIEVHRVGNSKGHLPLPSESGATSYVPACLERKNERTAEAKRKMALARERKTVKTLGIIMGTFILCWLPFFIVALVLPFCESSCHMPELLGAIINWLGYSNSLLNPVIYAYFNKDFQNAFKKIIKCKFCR
Method: To evaluate 5-HT release, an intracerebral microdyalisis procedure was used as has been described in the state of the art. In brief, the shaft of the probe was made up of 15-mm long, 25-gauge (501 μm OD, 300 μm ID) stainless-steel tubing. The inflow and outflow tubes threaded through the 25 gauge tubing consisted of fused silica capillary tubing of 110 μm OD and 40 μM ID. The upper exposed ends of silica tubing were inserted into 7-mm long, 27 gauge (410 μm OD, 220 μM ID) stainless-steel tubing. Mice were anesthetized with sodium pentobarbital (40 mg/kg, i.p.) and positioned in a stereotaxic frame.
Dialysate samples of 60 μl were collected every 30 min in microcentrifuge vials.
At the completion of dialysis experiments, mice were sacrificed and the brains were immediately removed and frozen at −70° C. Coronal sections (50 μm) of the brain were cut afterwards on a cryostat and stained with cresyl violet, according to standard procedures, for localization of the perfusion site. Only data obtained from animals with histologically correct probe placements were used for subsequent statistical analysis.
The retention time for 5-HT was 3.5-4 min and the detection limit was 2 fmol/sample.
Mice were anesthetized with pentobarbital 40 mg/kg i.p and positioned on their backs. PBS or NLF-siRNA was slowly and gently dropped in alternating nostril with a micropipette tip in 5-ul aliquots.

[6] = molecular target: T1, 5-HT1AR; experiment: 8-OH-DPAT-induced hypothermia after i.c.v. infusion into D3V; assay type: in vivo, mice; design: we used [^3H]8-OH-DPAT for the autoradiographic visualization of 5-HT1A receptor sites; from tissue; host or cells: mouse brain (dorsal raphe nucleus, prefrontal cortex, hippocampus): living animal or frozen 14 µm sections; details: 30 μg/2.5 μl/1 day into D3V; 24 h after infusion; 8-OH-DPAT 1 mg/kg i.p.; FIG. 6
Method: To test a functional measure of the pre-synaptic 5-HT1AR activity, we evaluated the hypothermia response induced by (R)-(+)-8-hydroxy-2-(di-n-propylamino)tetralin hydrobromide (8-OH-DPAT, a selective 5-HT1AR agonist) 24 hs after the infusion of a pool of naked siRNA or NLF-siRNA into dorsal raphe nucleus (DRN, 0.3 μg (0.02 nmoles)/1 μl/2 days). […] Mice were kept in individual cages in experimental room at stable temperature of 22° C. 1 h before the experiment. All experiments were carried out between 10:00 a.m. and 14:00 p.m. Body temperature was measured by inserting a lubricated probe into the rectum 5 min before the reading of the temperature while the mice was freely moving. The readings were obtained with a digital thermometer. A basal value was measured 5 min before and 15, 30, 60 and 120 min after 8-OH-DPAT administration. […] Body temperature was assessed 24 hs after the last application of 5-HT1A-targeting siRNAs into DRN in different groups of mice and in their respective controls. […]
To evaluate the NLF-siRNA effect on the functional features of 5-HT1AR we assayed hypothermia response induced by 8-OH-DPAT and 5-HT release in the medial prefrontral cortex (mPFC). We evaluated the hypothermia response induced by 8-OH-DPAT 24 hs after the infusion of a pool of naked siRNAs or NLF-siRNA (as described in example 2) into dorsal 3rd ventricle (D3V, 30 μg/2.5 μl/1 day).

Row | Substance | 5-HTT mRNA level in dorsal (DR) and median (MnR) raphe nuclei ([1]; intranasal 10 and 30 μg, vs vehicle and nonsense-NLF-siRNA, FIG. 15A) | knockdown of 5-HTT mRNA in dorsal raphe nuclei ([1]; intranasal, both doses (10 and 30 μg/mice), three antero-posterior coordinates, FIG. 14A) | serotonin transporter levels in the different brain areas [2] | knockdown effect on 5-HT1AR [3] | dyalisate serotonin concentration in medial prefrontal cortex, higher than baseline [4] | extracellular 5-HT levels in mPFC following systemic 8-OH-DPAT [5] | hypothermia response induced by 8-OH-DPAT [6]
1 | 5-HTT-NLF-siRNA: 5-HTT-targeted siRNA (SEQ ID NO 14/15) conjugated to a group of formula (I) and one targeting agent (sertraline) (chain 1 GCUAGCUACAACAAGUUCATT; chain 2 UGAACUUGUUGUAGCUAGCTT; further chemistry not given here) | reduction of 5-HTT mRNA level | specific knowdown of 5-HTT mRNA | reduction of the serotonin transporter levels | – | – | – | –
2 | ns NLF-siRNA: nonsense siRNA (SEQ ID NO 56/57) conjugated to a group of formula (I) and one targeting agent; control (chain 1 AGUACUGCUUACGAUACGG; chain 2 CCGUAUCGUAAGCAGUACU; further chemistry not given here) | – | – | – | did not show a knockdown effect | ~50% | reduced | typical curve in the hypothermia response
